Measurements as given in ChEMBL document CHEMBL4190295, “One-pot three steps cascade synthesis of novel isoandrographolide analogues and their cytotoxic activity” (Eur J Med Chem, 2017).

Key:
Assay type in all cases: functional, cell-based
P388 = test: Cytotoxicity against mouse P388 cells assessed as reduction in cell viability by SRB assay
KB = test: Cytotoxicity against human KB cells assessed as reduction in cell viability by SRB assay
HT-29 = test: Cytotoxicity against human HT-29 cells assessed as reduction in cell viability by SRB assay
MCF7 = test: Cytotoxicity against human MCF7 cells assessed as reduction in cell viability by SRB assay
A549 = test: Cytotoxicity against human A549 cells assessed as reduction in cell viability by SRB assay
[1] = Cytotoxicity against rat ASK cells assessed as reduction in cell viability by SRB assay

SMILES | IC50 (P388) [µM] | IC50 (KB) [µM] | IC50 (HT-29) [µM] | IC50 (MCF7) [µM] | IC50 (A549) [µM] | IC50 [1] [µM]
CC(=O)O[C@@H]1CC[C@]2(C)[C@H](CC[C@]3(CNc4cccc(F)c4)O[C@H](C4=CCOC4=O)C[C@H]32)[C@]1(C)CO[Si](C)(C)C(C)(C)C | 6.44 | 27.4 | 26.2 | 8.64 | 21.5 | 6.1
COc1ccc(NC[C@]23CC[C@@H]4[C@](C)(COC(C)=O)[C@H](OC(C)=O)CC[C@@]4(C)[C@@H]2C[C@@H](C2=CCOC2=O)O3)cc1OC | 28.8 | > 50 | 24.1 | > 50 | > 50 | > 50
CC(=O)O[C@@H]1CC[C@]2(C)[C@H](CC[C@]3(CNc4cccc(F)c4)O[C@H](C4=CCOC4=O)C[C@H]32)[C@]1(C)COC(c1ccccc1)(c1ccccc1)c1ccccc1 | > 50 | > 50 | > 50 | > 50 | > 50 | > 50
CC(=O)O[C@@H]1CC[C@]2(C)[C@H](CC[C@]3(CNc4ccccc4)O[C@H](C4=CCOC4=O)C[C@H]32)[C@]1(C)COC(c1ccccc1)(c1ccccc1)c1ccccc1 | > 50 | > 50 | > 50 | > 50 | > 50 | 29.1
CC(=O)O[C@@H]1CC[C@]2(C)[C@H](CC[C@]3(CNc4ccccc4F)O[C@H](C4=CCOC4=O)C[C@H]32)[C@]1(C)CO[Si](C)(C)C(C)(C)C | 4.56 | 6.49 | 5.59 | 4.45 | 6.1 | 3.33
CC(=O)O[C@@H]1CC[C@]2(C)[C@H](CC[C@]3(CNc4cccc(F)c4)O[C@H](C4=CCOC4=O)C[C@H]32)[C@]1(C)CO[Si](c1ccccc1)(c1ccccc1)C(C)(C)C | > 50 | > 50 | > 50 | > 50 | > 50 | 44.8
CC(=O)O[C@@H]1CC[C@]2(C)[C@H](CC[C@]3(CNc4ccccc4F)O[C@H](C4=CCOC4=O)C[C@H]32)[C@]1(C)CO[Si](C(C)C)(C(C)C)C(C)C | 21.4 | 30.8 | 30.2 | 15.3 | 21 | 8.05
CC(=O)O[C@@H]1CC[C@]2(C)[C@H](CC[C@]3(CNc4ccc(Br)cc4)O[C@H](C4=CCOC4=O)C[C@H]32)[C@]1(C)CO[Si](C)(C)C(C)(C)C | 6.39 | 25.7 | 27.7 | 12.9 | 15 | 7.35
CC(=O)O[C@@H]1CC[C@]2(C)[C@H](CC[C@]3(CNc4ccccc4F)O[C@H](C4=CCOC4=O)C[C@H]32)[C@]1(C)COC(c1ccccc1)(c1ccccc1)c1ccccc1 | > 50 | > 50 | > 50 | > 50 | > 50 | > 50
CC(=O)O[C@@H]1CC[C@]2(C)[C@H](CC[C@]3(CNc4ccccc4)O[C@H](C4=CCOC4=O)C[C@H]32)[C@]1(C)CO[Si](C)(C)C(C)(C)C | 5.19 | 21.2 | 8.5 | 5.44 | 7.8 | 5.94
CC(=O)O[C@@H]1CC[C@]2(C)[C@H](CC[C@]3(CNc4ccccc4F)O[C@H](C4=CCOC4=O)C[C@H]32)[C@]1(C)CO[Si](c1ccccc1)(c1ccccc1)C(C)(C)C | > 50 | > 50 | > 50 | > 50 | > 50 | 39.7
Cc1c2ccncc2c(C)c2c1[nH]c1ccccc12 [ELLIPTECINE] | 1.34 | 1.87 | 2.06 | 1.53 | 1.2 | 2.17
CC(=O)OC[C@@]1(C)[C@H]2CC[C@]3(CNc4ccccc4)O[C@H](C4=CCOC4=O)C[C@H]3[C@]2(C)CC[C@H]1OC(C)=O | 40 | > 50 | 25.7 | > 50 | > 50 | > 50
CC(=O)O[C@@H]1CC[C@]2(C)[C@H](CC[C@]3(CNc4ccc(Br)cc4)O[C@H](C4=CCOC4=O)C[C@H]32)[C@]1(C)CO[Si](c1ccccc1)(c1ccccc1)C(C)(C)C | 48.3 | > 50 | > 50 | > 50 | 47.8 | > 50
COc1ccc(NC[C@]23CC[C@@H]4[C@](C)(CO[Si](c5ccccc5)(c5ccccc5)C(C)(C)C)[C@H](OC(C)=O)CC[C@@]4(C)[C@@H]2C[C@@H](C2=CCOC2=O)O3)cc1OC | 27.5 | > 50 | > 50 | 35.8 | 48.6 | 9.37
CC(=O)OC[C@@]1(C)[C@H]2CC[C@]3(CNc4ccc(Br)cc4)O[C@H](C4=CCOC4=O)C[C@H]3[C@]2(C)CC[C@H]1OC(C)=O | 7.47 | 21.1 | 6.09 | 6.93 | 6.14 | 8.4
CC(=O)O[C@@H]1CC[C@]2(C)[C@H](CC[C@]3(CNc4ccccc4)O[C@H](C4=CCOC4=O)C[C@H]32)[C@]1(C)CO[Si](c1ccccc1)(c1ccccc1)C(C)(C)C | 45.3 | > 50 | > 50 | > 50 | > 50 | 9.32
COc1ccc(NC[C@]23CC[C@@H]4[C@](C)(CO[Si](C(C)C)(C(C)C)C(C)C)[C@H](OC(C)=O)CC[C@@]4(C)[C@@H]2C[C@@H](C2=CCOC2=O)O3)cc1OC | 4.98 | 17.9 | 5.24 | 4.7 | 6.08 | 4.61
CC(=O)O[C@@H]1CC[C@]2(C)[C@H](CC[C@]3(CNc4ccccc4)O[C@H](C4=CCOC4=O)C[C@H]32)[C@]1(C)CO[Si](C(C)C)(C(C)C)C(C)C | 6.54 | 18.8 | 17.5 | 8.33 | 9.43 | 6.1
COc1ccc(NC[C@]23CC[C@@H]4[C@](C)(CO[Si](C)(C)C(C)(C)C)[C@H](OC(C)=O)CC[C@@]4(C)[C@@H]2C[C@@H](C2=CCOC2=O)O3)cc1OC | 5.49 | 11.5 | 6.16 | 5.4 | 5.3 | 5.13
CC(=O)OC[C@@]1(C)[C@H]2CC[C@]3(CNc4cccc(F)c4)O[C@H](C4=CCOC4=O)C[C@H]3[C@]2(C)CC[C@H]1OC(C)=O | 6.85 | 20.8 | 5.87 | 7.41 | 6.52 | 22.3
C=C1CC[C@@H]2[C@](C)(CO)[C@H](O)CC[C@@]2(C)[C@@H]1C/C=C1/C(=O)OC[C@H]1O [ANDROGRAPHOLIDE] | 2.25 | 27.4 | 9.34 | 15.4 | 27.9 | 16.2
CC(=O)OC[C@@]1(C)[C@H]2CC[C@]3(CNc4ccccc4F)O[C@H](C4=CCOC4=O)C[C@H]3[C@]2(C)CC[C@H]1OC(C)=O | 7.5 | 26.5 | 6.5 | 11.8 | 8.45 | 27.8
COc1ccc(NC[C@]23CC[C@@H]4[C@](C)(COC(c5ccccc5)(c5ccccc5)c5ccccc5)[C@H](OC(C)=O)CC[C@@]4(C)[C@@H]2C[C@@H](C2=CCOC2=O)O3)cc1OC | 30.5 | > 50 | > 50 | 23.1 | > 50 | 6.51
CC(=O)O[C@@H]1CC[C@]2(C)[C@H](CC[C@]3(CNc4ccc(Br)cc4)O[C@H](C4=CCOC4=O)C[C@H]32)[C@]1(C)COC(c1ccccc1)(c1ccccc1)c1ccccc1 | > 50 | > 50 | > 50 | > 50 | > 50 | > 50
CC(=O)O[C@@H]1CC[C@]2(C)[C@H](CC[C@]3(CNc4ccc(Br)cc4)O[C@H](C4=CCOC4=O)C[C@H]32)[C@]1(C)CO[Si](C(C)C)(C(C)C)C(C)C | 40.5 | > 50 | > 50 | > 50 | > 50 | 29.7
CC(=O)O[C@@H]1CC[C@]2(C)[C@H](CC[C@]3(CNc4cccc(F)c4)O[C@H](C4=CCOC4=O)C[C@H]32)[C@]1(C)CO[Si](C(C)C)(C(C)C)C(C)C | 7.95 | 32.9 | 30.1 | 12.7 | 24.5 | 6.91
